What was measured:
[1] = test system: Citric Acid-Induced Cough Reflex in Guinea Pigs; test: Inhibitory effect on citric acid-induced cough reflex in guinea pigs (Experimental Example 1-1, plethysmograph); type: in vivo; conditions: oral, 30 mg/kg, cough measured 1 hr after treatment
Method: Guinea pigs were fasted overnight. They were fixed to a plethysmograph, and then the change of inner pressure in the plethysmograph (body side) was recorded on an ink-recording paper (Nihon Kohden Corporation; WI-642G) via the differential pressure transducer (Nihon Kohden Corporation; TP-602T) and the respiration amplifier (Nihon Kohden Corporation; AR-601G). Using a nebulizer (OMRON Corporation; NE-U12), 20 W/V % citric acid solution was sprayed into the plethysmograph (head side) for 2 min (about 1 mL/min). The number of cough response for 15 min after the spray was measured.
(§1) The cough response was measured 3 hrs before and 1 hr after oral treatment. The test compound was not administered to the guinea pigs showing 5 coughs response or less before the treatment. The ratio of cough response between before and after the treatment (Post/Pre×100) was calculated, and the percent inhibition of the test compound on cough reflex induced by citric acid was determined according to the following formula: [(CRRcontrol−CRRtest)/(CRRcontrol)]×100 (%) • CRRcontrol: Ratio (%) of cough response in the control group • CRRtest: Ratio (%) of cough response in the compound-treated group

[2] = test system: Wistar Hannover female rats; test: Toxicological study, 14-day repeated oral dose in rats; type: in vivo; conditions: 400 mg/kg/day once daily for 14 days
Method: The compound of Example 26 was orally given to 6-week-old Wistar Hannover female rats at 400 mg/kg/day once daily for 14 days.

male rhesus monkeys [3] = test: Toxicological study, 14-day repeated oral dose in rhesus monkeys; type: in vivo
Method: The compound of Example 36 or Example 26 was orally given to 3-year-old male rhesus monkeys at 20 mg/kg/day or 40 mg/kg/day, respectively, once daily for 14 days.

male rhesus monkeys [4] = test: Holter ECG test in rhesus monkeys; type: in vivo; conditions: oral, 4-year-old male rhesus monkeys
Method: In Holter ECG test, the compound of Example 36 or Example 26 was orally given to 4-year-old male rhesus monkeys at 40 mg/kg and 80 mg/kg, respectively.

[5] = Pharmacokinetics, time-course of plasma concentration after single oral treatment; type: in vivo, rhesus monkeys; conditions: for bioavailability: 3- or 4-year-old male rhesus monkeys; for area under the plasma concentration-time curve (AUC), dependence on dose / maximum plasma concentration (Cmax), dependence on dose / relationship between the dose and the plasma concentration: rhesus monkeys
Text: The compound of Example 36 or Example 26 was studied about time-course of plasma concentration after single oral treatment to 3- or 4-year-old male rhesus monkeys. […] The relationship between the dose and the plasma concentration was linear. […] Therefore, it can be considered that these compounds are unlikely to be metabolized by first pass effect.

[6] = test system: human drug-metabolizing enzymes; test: Inhibitory effect on human drug-metabolizing enzymes; type: in vitro ADME
[7] = test system: liver microsomes and hepatocytes of humans; test: Metabolic stability in liver microsomes and hepatocytes, humans; type: in vitro ADME
[8] = test system: liver microsomes and hepatocytes of monkeys; test: Metabolic stability in liver microsomes and hepatocytes, monkeys; type: in vitro ADME
[9] = test system: liver microsomes and hepatocytes of dogs; test: Metabolic stability in liver microsomes and hepatocytes, dogs; type: in vitro ADME
[10] = test system: liver microsomes and hepatocytes of rats; test: Metabolic stability in liver microsomes and hepatocytes, rats; type: in vitro ADME
[11] = test system: Wistar Hannover female rats; test: Toxicological study, oral dose in rats; type: in vivo; conditions: 40 mg/kg, 6-week-old rats
Method: The compound of Example 36 was orally given to 6-week-old Wistar Hannover female rats at 40 mg/kg.

[12] = test system: Citric Acid-Induced Cough Reflex in Guinea Pigs; test: Inhibitory action on citric acid-induced cough reflex in guinea pigs (Experimental Example 1-2, nasal inhalation-exposure apparatus); type: in vivo; conditions: oral, 30 mg/kg, cough measured 1 hr after treatment
Method: Guinea pigs were fasted overnight. They were fixed to an nasal inhalation-exposure apparatus for small animals (M.I.P.S. Co., Ltd.), and then 20 W/V % citric acid solution was sprayed into the plethysmograph for 2 min (about 1 mL/min) using a nebulizer (M.I.P.S. Co., Ltd.). The number of cough response for 15 min after the spray was measured.
as §1, with “5 cough responses” for “5 coughs response”, “compound-treated group.” for “compound-treated group”

[13] = 40 mg/kg/day once daily for 14 days
[14] = 20 mg/kg/day once daily for 14 days

| Structure (SMILES) | bioavailability [5] | area under the plasma concentration-time curve (AUC), dependence on dose [5] | maximum plasma concentration (Cmax), dependence on dose [5] | relationship between the dose and the plasma concentration [5] | inhibitory effect on human drug-metabolizing enzymes [6] | metabolic stability in liver microsomes and hepatocytes [7] | metabolic stability in liver microsomes and hepatocytes [8] | metabolic stability in liver microsomes and hepatocytes [9] | metabolic stability in liver microsomes and hepatocytes [10] | further results |
| --- | --- | --- | --- | --- | --- | --- | --- | --- | --- | --- |
| CN(CC1(O)CCN(CCc2ccc(C#N)cc2)CC1)c1ccc(C(=O)O)cc1.Cl [Example 26, 4-({1-[2-(4-cyanophenyl)ethyl]-4-hydroxypiperidin-4-ylmethyl}methylamino)benzoic acid monohydrochloride] | high | increased almost in proportion to the doses | increased almost in proportion to the doses | linear | almost no inhibitory effect | metabolically stable | metabolically stable | metabolically stable | metabolically stable | Percent inhibition on cough reflex [1]: 59%; abnormality in general behaviors, weight gains, and food consumptions [2]: no abnormality; findings in hematological and biochemical examinations, organ weights and histopathological tests [2]: No abnormal findings; survival until 24 hours after the final treatment [2]: survived; abnormality in weight gains and general behaviors (male rhesus monkeys [3]; [13]): no abnormality; findings in hematological and biochemical examinations, organ weights and histopathological tests (male rhesus monkeys [3]; [13]): No apparent toxicological findings; survival until 24 hours after the final treatment (male rhesus monkeys [3]; [13]): survived; effect on electrocardiogram (male rhesus monkeys [4]; 80 mg/kg): no effect |
| Cl.N#Cc1ccc(CCN2CCC(O)(COc3ccc(C(=O)O)cc3)CC2)cc1 [Example 36, 4-{1-[2-(4-cyanophenyl)ethyl]-4-hydroxypiperidin-4-ylmethoxy}benzoic acid monohydrochloride] | high | increased almost in proportion to the doses | increased almost in proportion to the doses | linear | almost no inhibitory effect | metabolically stable | metabolically stable | metabolically stable | metabolically stable | abnormality in general behaviors [11]: no abnormality; survival during the examination period [11]: survived; abnormality in weight gains and general behaviors (male rhesus monkeys [3]; [14]): no abnormality; findings in hematological and biochemical examinations, organ weights and histopathological tests (male rhesus monkeys [3]; [14]): No apparent toxicological findings; survival until 24 hours after the final treatment (male rhesus monkeys [3]; [14]): survived; effect on electrocardiogram (male rhesus monkeys [4]; 40 mg/kg): no effect |
| CN(CC1(O)CN(CCc2ccc(C#N)cc2)C1)c1ccc(C(=O)O)cc1.Cl [Example 34, 4-({1-[2-(4-Cyanophenyl)ethyl]-3-hydroxyazetidin-3-ylmethyl}methylamino)benzoic acid monohydrochloride] | – | – | – | – | – | – | – | – | – | Percent inhibition on cough reflex [12]: 39%; melting point: 209.1 to 210.5 °C |
